Converted amounts (≈) assume the structure as drawn.
How the values were obtained:
[1] = system: Mycobacterium tuberculosis; assay: Antimycobacterial activity against Mycobacterium bovis var. bovis BCG in 7H9 liquid medium after 7 days; assay type: functional; conditions: variant bovis BCG, 168 h
[2] = system: Mycobacterium tuberculosis; assay: Antimycobacterial activity against Mycobacterium bovis var. bovis BCG in 7H11 solid medium after 7 days; assay type: functional; conditions: variant bovis BCG, 168 h

CC(=O)Oc1ccccc1C(=O)Nc1ncc([N+](=O)[O-])s1 [NITAZOXANIDE]
MIC [1]: 16 µg/mL (≈ 52.1 µM)
MIC [2]: 16 µg/mL (≈ 52.1 µM)

From ChEMBL document CHEMBL1153535, “Nitazoxanide kills replicating and nonreplicating Mycobacterium tuberculosis and evades resistance” (J Med Chem, 2009)
